According to patent EP2712863B1, “Novel inhibitors of bacterial biofilms and related methods” (Sequoia Sciences, Inc., priority 2012, dated 2014):
≈ marks a conversion by molar mass, not a printed value. Where two headings read alike, the source gives them in different places.

Assays:
E. coli = experiment: Biofilm growth assay (spreading biofilm on semi-solid agar); format: cell-based; set-up: E. coli (n=10): unit: ug/mL; settings: for IC85: Escherichia coli; for E. coli (n=10): Table 6, inhibitory concentration in the biofilm growth assay, n = number of isolates tested
In short: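 Spreading (swarming) biofilm on semi-solid agar: E. coli on LB with 0.6% agar and 0.5% glucose; P. aeruginosa on M8 agar with 0.2% glucose, 100 µM CaCl2, 1 mM MgSO4, 0.5% Casamino acids. Compound in medium; 5 µL overnight culture spotted centrally, 37°C overnight. Value: concentration (µg/ml) giving ≥85% reduction in spread area versus negative control.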

P. aeruginosa = experiment: as above; format: cell-based; set-up: P. aeruginosa (n=10): unit not given here; settings: for IC85: Pseudomonas aeruginosa; for P. aeruginosa (n=10): Table 6, inhibitory concentration in the biofilm growth assay, n = number of isolates tested
[1] = Bioavailability in mice (serum level after oral or IP administration); format: in vivo; settings: orally or via IP injection at approximately 20 mg/kg to 50 mg/kg; 30 minutes or 1 hour after administration
Protocol: The bioavailabilities of certain compounds were examined in mice. Administration of the compounds was performed orally and by intraperitoneal (IP) injection using a vehicle as known to those skilled in the art. Many vehicles can be used to examine bioavailability. Prior to administration, each vehicle was optimized based on compound solubility according to the formulation research conducted by Uckun et al. (Arznelmittel-Forschung (Drug Research) 2007; 57(4):218-226). […] The concentration of PEG400 is modulated depending upon solubility of the compounds and the amount of aqueous phase added (0.02 M citrate and 0.9% NaCl).

Burkholderia cepacia = experiment: Biofilm growth assay, multiple isolates; format: cell-based; settings: Table 6; inhibitory concentration in the biofilm growth assay; n = number of isolates tested
Protocol: (§1) The biofilm growth assay was carried out to measure swarming or biofilm spreading on semi-solid agar media in round plates (for example, 100 × 15 mm), also referred to as Petri dishes. For E. coli, the plates contained LB medium with 0.6% agar and 0.5% glucose. P. aeruginosa plates were made with M8 agar supplemented with 0.2% glucose, 100 µM CaCl2, 1 mM MgSO4, and 0.5% Casamino acids. The agar plates of this assay consisted of 0.4% to 0.7% agar (Bacto or Noble agar), although other media may also be used as described in the literature and known to those skilled in the art. Test compounds at the desired concentration were added to the cooled, autoclaved media. Portions of the media were then poured into the plates (20 mL/plate), and the plates allowed to dry at room temperature for approximately 3 to 4 hours. Alternatively, however, plates may be dried in a laminar flow hood for approximately fifteen to twenty minutes. Overnight cultures were grown in a 37°C shaker in LB (E. coli) or TSB (P. aeruginosa). Plates were inoculated by placing 5 µL of the appropriate overnight culture in the centers of the plates. The plates then were incubated overnight at 37°C. The area of the zone of spreading bacteria was then measured and replicates are averaged. Percent inhibition was calculated as 100 × (area without compound - area with compound)/(area without compound). An active compound was considered that which reduces the area of the spreading biofilm compared to negative controls by greater than or equal to 85%. The values shown in Table 1 are the concentrations of compounds (µg/ml) tested in the biofilm growth assay that reduce the area of the spreading biofilm compared to negative controls by greater than or equal to 85% unless noted differently in Table 1. A > ("greater than" symbol) as used in Table 1 is well understood to those skilled in the art as an indication that the listed concentration was not effective at this concentration.
(§2) Table 6, below, lists the inhibitory concentrations of select compounds and antibiotics in the biofilm growth assay against various gram-negative bacterial biofilms. "N" means the number of isolates of bacteria tested. The biofilm growth assay procedure detailed in Example I, above, was followed. Burkholderia cepacia used media consisting of M9 salts, 100 µM CaCl2, 1 mM MgS04, and 0.7% citrate in 0.4% Noble agar. Salmonella spp. used media consisting of Nutrient Broth with 0.5% glucose in 0.5% Noble agar.

Salmonella spp. = experiment: Biofilm growth assay, multiple isolates; format: cell-based; settings: Table 6; inhibitory concentration in the biofilm growth assay; n = number of isolates tested
Protocol: as §1, §2

[2] = Table 1, concentration that reduces the area of the spreading biofilm vs negative controls by >= 85%, > means not effective at this concentration, read-out: E. coli
[3] = Table 1, concentration that reduces the area of the spreading biofilm vs negative controls by >= 85%, > means not effective at this concentration, read-out: P. aeruginosa
[4] = Table 3, concentration that reduces the area of the spreading biofilm by >= 85%, read-out: E. coli
[5] = Table 3, concentration that reduces the area of the spreading biofilm by >= 85%, read-out: P. aeruginosa
[6] = Table 2, concentration that reduces the area of the spreading biofilm by >= 85%

In the case of `CC1(C)CC[C@]2(c3cc(O)[nH]n3)CC[C@]3(C)C(=CCC4[C@@]5(C)Cc6c(n[nH]c6N)C(C)(C)C5CC[C@]43C)C2C1` (stereo partly drawn) [Compound 68, 3-((4aS,6aS,6bR,13aR)-12-Amino-2,2,6a,6b,9,9,13a-heptamethyl-2,3,4,4a,5,6,6a,6b,7,8,8a,9,11,13,13a,13b,14,15b-octadecahydro-1H-chryseno[1,2-f]indazol-4a-yl)-1H-pyrazol-5-ol], the IC85 (E. coli; read-out: E. coli (µg/ml)) is reported as 0.5 µg/mL (≈ 0.94 µM), the IC85 (P. aeruginosa; read-out: P. aeruginosa (µg/ml)) is reported as 0.5 µg/mL (≈ 0.94 µM) and the “concentration in the serum of mice” value [1] is reported as greater than 5 µg/mL.
For `NC[C@H]1O[C@H](O[C@H]2[C@H](O)[C@@H](O[C@H]3O[C@H](CO)[C@@H](O)[C@H](N)[C@H]3O)[C@H](N)C[C@@H]2N)[C@H](N)C[C@@H]1O` [Tobramycin, tobramcyin, reference compound], the inhibitory concentration (Burkholderia cepacia) was greater than 64, the “inhibitory concentration in biofilm growth assay” value (Salmonella spp.) was 8 and the “E. coli (n=10)” value (E. coli) was 16. For the same molecule, the “P. aeruginosa (n=10)” value (P. aeruginosa) was 4.
With `CC1(C)CC[C@]2(C(=O)O)CC[C@]3(C)C(=CC[C@@H]4[C@@]5(C)CC[C@H](O)C(C)(C)[C@@H]5CC[C@]43C)[C@@H]2C1` [Oleanolic acid, reference compound] the inhibitory concentration (Burkholderia cepacia) was 0.5, the “inhibitory concentration in biofilm growth assay” value (Salmonella spp.) was greater than 64 and the IC85 (E. coli; [2]) was greater than 8 µg/mL. The “E. coli (n=10)” value (E. coli) was 16, the IC85 (P. aeruginosa; [3]) was 4 µg/mL (≈ 8.76 µM) and the “P. aeruginosa (n=10)” value (P. aeruginosa) was 8.
With `CC[C@H]1OC(=O)[C@H](C)[C@@H](O[C@H]2C[C@@](C)(OC)[C@@H](O)[C@H](C)O2)[C@H](C)[C@@H](O[C@@H]2O[C@H](C)C[C@H](N(C)C)[C@H]2O)[C@](C)(O)C[C@@H](C)CN(C)[C@H](C)[C@@H](O)[C@]1(C)O` [Azithromycin, azithromycin] the inhibitory concentration (Burkholderia cepacia) was greater than 16, the “inhibitory concentration in biofilm growth assay” value (Salmonella spp.) was greater than 16 and the “P. aeruginosa (n=10)” value (P. aeruginosa) was greater than 16.
Work on `CC1(C)CC[C@]2(C(=O)O)CC[C@]3(C)C(=C(c4ccoc4CN4CCNCC4)CC4[C@@]5(C)Cc6c(n[nH]c6N)C(C)(C)[C@@H]5CC[C@]43C)[C@@H]2C1` (stereo partly drawn) [Compound 35, (4aS,6aS,6bR,8aR,13aR,15bS)-12-Amino-2,2,6a,6b,9,9,13a-heptamethyl-15-(2-(piperazin-1-ylmethyl)furan-3-yl)-2,3,4,4a,5,6,6a,6b,7,8,8a,9,11,13,13a,13b,14,15b-octadecahydro-1H-chryseno[1,2-f]indazole-4a-carboxylic acid] yielded an IC85 (E. coli; [4]) of 1 µg/mL (≈ 1.52 µM) and an IC85 (P. aeruginosa; [5]) greater than 1 µg/mL.
`CC1(C)CC[C@]2(C(=O)O)CC[C@]3(C)C(=C(c4ccc(N5CCNCC5)nc4)CC4[C@@]5(C)Cc6c(n[nH]c6N)C(C)(C)C5CC[C@]43C)C2C1` (stereo partly drawn) [Compound 55, (4aS,6aS,6bR,13aR)-12-Amino-2,2,6a,6b,9,9,13a-heptamethyl-15-(6-(piperazin-1-yl)pyridin-3-yl)-2,3,4,4a,5,6,6a,6b,7,8,8a,9,11,13,13a,13b,14,15b-octadecahydro-1H-chryseno[1,2-f]indazole-4a-carboxylic acid] showed an IC85 (E. coli; [4]) of 2 µg/mL (≈ 3.05 µM) and an IC85 (P. aeruginosa; [5]) greater than 1 µg/mL.
`CC1(C)CC[C@]2(C(=O)O)CC[C@]3(C)C(=C(c4ccc(N5CCOCC5)nc4)CC4[C@@]5(C)Cc6c(n[nH]c6N)C(C)(C)[C@@H]5CC[C@]43C)[C@@H]2C1` (stereo partly drawn) [Compound 54, (4aS,6aS,6bR,8aR,13aR,15bS)-12-Amino-2,2,6a,6b,9,9,13a-heptamethyl-15-(6-morpholinopyridin-3-yl)-2,3,4,4a,5,6,6a,6b,7,8,8a,9,11,13,13a,13b,14,15b-octadecahydro-1H-chryseno[1,2-f]indazole-4a-carboxylic acid] gave an IC85 (E. coli; [4]) of 2 µg/mL (≈ 3.05 µM) and an IC85 (P. aeruginosa; [5]) of 1 µg/mL (≈ 1.52 µM).
With `CC1(C)CC[C@]2(C(=O)O)CC[C@]3(C)C(=CCC4[C@@]5(C)Cc6c(n[nH]c6N)C(C)(C)C5CC[C@]43C)C2C1` (stereo partly drawn) [Compound 2, (4aS,6aS,6bR,13aR)-12-Amino-2,2,6a,6b,9,9,13a-heptamethyl-2,3,4,4a,5,6,6a,6b,7,8,8a,9,11,13,13a,13b,14,15b-octadecahydro-1H-chryseno[1,2-f]indazole-4a-carboxylic acid] the “E. coli” value (E. coli; [6]) was 1 µg/mL and the “P. aeruginosa” value (P. aeruginosa; [6]) was 0.5 µg/mL.
Molecule `CC1(C)CC[C@]2(C(=O)O)CC[C@]3(C)C(=C(c4c[nH]c(CN5CCOCC5)c4)CC4[C@@]5(C)Cc6c(n[nH]c6N)C(C)(C)[C@@H]5CC[C@]43C)[C@@H]2C1` (stereo partly drawn) [Compound 9, (4aS,6aS,6bR,8aR,13aR,15bS)-12-Amino-2,2,6a,6b,9,9,13a-heptamethyl-15-(5-(morpholinomethyl)-1H-pyrrol-3-yl)-2,3,4,4a,5,6,6a,6b,7,8,8a,9,11,13,13a,13b,14,15b-octadecahydro-1H-chryseno[1,2-f]indazole-4a-carboxylic acid] has an IC85 (E. coli; Table 2, concentration that reduces the area of the spreading biofilm by >= 85%, read-out: E. coli) of 1 µg/mL (≈ 1.52 µM) and an IC85 (P. aeruginosa; Table 2, concentration that reduces the area of the spreading biofilm by >= 85%, read-out: P. aeruginosa) of 0.5 µg/mL (≈ 0.76 µM).
In the case of `CC1(C)CC[C@]2(C(=O)O)CC[C@]3(C)C(=C(c4ccccc4N)CC4[C@@]5(C)Cc6c(n[nH]c6N)C(C)(C)C5CC[C@]43C)C2C1` (stereo partly drawn) [Compound 23, (4aS,6aS,6bR,13aR)-12-Amino-15-(2-aminophenyl)-2,2,6a,6b,9,9,13a-heptamethyl-2,3,4,4a,5,6,6a,6b,7,8,8a,9,11,13,13a,13b,14,15b-octadecahydro-1H-chryseno[1,2-f]indazole-4a-carboxylic acid], the IC85 (E. coli; [4]) is reported as 2 µg/mL (≈ 3.42 µM) and the IC85 (P. aeruginosa; [5]) is reported as 1 µg/mL (≈ 1.71 µM).
`CC1(C)CC[C@]2(C(=O)O)CC[C@]3(C)C(=CCC4[C@@]5(C)Cc6c[nH]nc6C(C)(C)C5CC[C@]43C)C2C1` (stereo partly shown) [D] gave an IC85 (E. coli; [2]) of 4 µg/mL (≈ 8.36 µM) and an IC85 (P. aeruginosa; [3]) of 1 µg/mL (≈ 2.09 µM).
`CC1(C)CC[C@]2(C(=O)O)CC[C@]3(C)C(=C(c4c[nH]cc4CN4CCOCC4)CC4[C@@]5(C)Cc6c(n[nH]c6N)C(C)(C)[C@@H]5CC[C@]43C)[C@@H]2C1` (stereo partly drawn) [Compound 33, (4aS,6aS,6bR,8aR,13aR,15bS)-12-Amino-2,2,6a,6b,9,9,13a-heptamethyl-15-(4-(morpholinomethyl)-1H-pyrrol-3-yl)-2,3,4,4a,5,6,6a,6b,7,8,8a,9,11,13,13a,13b,14,15b-octadecahydro-1H-chryseno[1,2-f]indazole-4a-carboxylic acid] showed an IC85 (E. coli; [4]) of 4 µg/mL (≈ 6.08 µM) and an IC85 (P. aeruginosa; [5]) of 2 µg/mL (≈ 3.04 µM).
Work on `Cc1c([C@]23CCC(C)(C)CC2C2=CCC4[C@@]5(C)Cc6c(n[nH]c6N)C(C)(C)C5CC[C@@]4(C)[C@]2(C)CC3)n[nH]c1O` (stereo partly drawn) [Compound 82, 3-((4aS,6aS,6bR,13aR)-12-Amino-2,2,6a,6b,9,9,13a-heptamethyl-2,3,4,4a,5,6,6a,6b,7,8,8a,9,11,13,13a,13b,14,15b-octadecahydro-1H-chryseno[1,2-f]indazol-4a-yl)-4-methyl-1H-pyrazol-5-ol] yielded an IC85 (E. coli; Table 4, concentration that reduces the area of the spreading biofilm by >= 85%, read-out: E. coli) of 1 µg/mL (≈ 1.83 µM) and an IC85 (P. aeruginosa; Table 4, concentration that reduces the area of the spreading biofilm by >= 85%, read-out: P. aeruginosa) of 0.5 µg/mL (≈ 0.916 µM).
In the case of `CC(C)(O/N=C(\C(=O)N[C@@H]1C(=O)N2C(C(=O)[O-])=C(C[n+]3ccccc3)CS[C@H]12)c1csc(N)n1)C(=O)O` [Ceftazidime, ceftazidime, reference compound], the inhibitory concentration (Burkholderia cepacia) is reported as greater than 8, the “inhibitory concentration in biofilm growth assay” value (Salmonella spp.) is reported as 0.5 and the “E. coli (n=10)” value (E. coli) is reported as 0.25. For the same molecule, the “P. aeruginosa (n=10)” value (P. aeruginosa) was 4.
`CC1(C)CC[C@]2(C(=O)O)CC[C@]3(C)C(=C(c4cccc(O)c4)CC4[C@@]5(C)Cc6c(n[nH]c6N)C(C)(C)C5CC[C@]43C)C2C1` (stereo partly drawn) [Compound 16, (4aS,6aS,6bR,13aR)-12-Amino-15-(3-hydroxyphenyl)-2,2,6a,6b,9,9,13a-heptamethyl-2,3,4,4a,5,6,6a,6b,7,8,8a,9,11,13,13a,13b,14,15b-octadecahydro-1H-chryseno[1,2-f]indazole-4a-carboxylic acid] gave an IC85 (E. coli; [4]) of 2 µg/mL (≈ 3.41 µM) and an IC85 (P. aeruginosa; [5]) of 1 µg/mL (≈ 1.71 µM).
